{"source": "patent US5603917A", "about": "“Methods for the in vivo measurement of the concentration of NMR-detectable xenobiotic compounds” (Bracco International B. V., priority 1994, dated 1997)", "key": {"[1]": {"test": "Blood sampling with in vitro assay of ^153 Gd-labeled ProHance® and ^99m Tc(DTPA), elimination from rat blood pool (validation experiment)", "format": "in vivo", "conditions": "rats #5 to #7; blood samples; simultaneous intravenous injection; same values obtained for ^153 Gd and ^99m Tc", "description": "(§1) Runs involving simultaneous intravenous injection administrations of 0.5 mmol/kg ProHance®, ^153 Gd-labeled ProHance® and ^99m Tc(DTPA) (Techneplex™, technetium-diethylenetriamine pentaacetic acid), the latter to determine glomerular filtration rate by in vitro methods as a validation experiment, were also carried out. In these runs, rat blood samples and tail T1 data were acquired at the same time intervals from the same rat, and with multiple subjects (n=3). The blood samples were assayed in vitro to determine the amounts of ^153 Gd-labeled ProHance® and ^99m Tc(DTPA) in the blood, and the percentage changes in the blood pool concentrations of ^153 Gd-labeled ProHance® and ^99m Tc(DTPA) were plotted as a function of time to obtain the T1/2 values. The T1/2 data were also calculated from the slopes of the log(1/T1 -1/T10) versus time plots. These two sets of rat T1/2 data are shown in Table 1, and are also compared in FIG. 2."}, "[2]": {"test": "In vivo proton T1 measurement at rat tail, elimination of ProHance® (kidney status)", "conditions": "intravenous 0.5 mmol/kg ProHance®, 20 MHz, 0.5 Tesla, 40° C.", "description": "The measurement site was the tail of the subject rat, which was hung into the sample tube of a Brucker/IBM PC 20 Spin Analyzer (commerically available).\nRat proton T1 data were recorded both before and after intravenous injection of 0.5 mmol/kg ProHance®. The T1 measurements were made by the inversion-recovery method (Fukushima et al., Experimental Pulse NMR, a Nuts and Bolts Approach (Addison-Wesley 1981)) at 20 MHz and 0.5 Tesla at 40° C. with the IBM PC 20 relaxometer by sampling the section of the rat tail about 10 mm from the tip. The proton T1 change upon the injection of ProHance® was followed for 2 hours at 5 minute intervals after injection. The logarithms of the differences in the T1 relaxation rate (reciprocal of T1 relaxation time) before and after injection, log(1/T1 -1/T10), were plotted as a function of time. The elimination halftimes (T1/2) were calculated from the slopes of the log plots. The proton T1 data of a nephrectomized rat were also collected and used for comparison with the behaviour of normal rats (see FIG. 1).\nas §1"}, "[3]": {"conditions": "normal rats #1 to #7, one value per rat, 2 hours at 5 minute intervals"}}, "note": "Several values for one entry are separate records, joined by “and”; a condition that tells them apart may be missing. Equal values may be shown once.", "data": [{"molecule": "CC(O)CN1CCN(CC(=O)[O-])CCN(CC(=O)[O-])CCN(CC(=O)[O-])CC1.[Gd+3]", "note": "(stereo not drawn) [^153 Gd-labeled ProHance®]", "values": [{"measurement": "Elimination Halftime T1/2 From ^153 Gd and ^99m Tc", "setting": "[1]", "result": 31, "unit": "min"}]}, {"molecule": "technetium-diethylenetriamine pentaacetic acid [^99m Tc(DTPA)]", "values": [{"measurement": "Elimination Halftime T1/2 From ^153 Gd and ^99m Tc", "setting": "[1]", "result": 31, "unit": "min"}]}, {"molecule": "CC(O)CN1CCN(CC(=O)[O-])CCN(CC(=O)[O-])CCN(CC(=O)[O-])CC1.[Gd+3]", "note": "(stereo not drawn) [ProHance®, Gd-hydroxypropyl tetraazacylododecanetriacetic acid]", "values": [{"measurement": "Elimination Halftime T1/2 From Slope", "setting": "[2]; nephrectomized rat", "result": "2,000 ± 4,000 min."}, {"measurement": "Slope of Log (1/T1 - 1/T10) vs Time Plot", "setting": "[2]; nephrectomized rat", "result": "0.0003 ± 0.0006"}, {"measurement": "Elimination Halftime T1/2 From Slope", "setting": "[2]; [3]", "result": "35 ± 5 min and 32 ± 2 min and 25 ± 4 min and 30 ± 3 min and 36 ± 2 min and 20 ± 2 min"}, {"measurement": "Slope of Log (1/T1 - 1/T10) vs Time Plot", "setting": "[2]; [3]", "result": "0.0093 ± 0.0006 and 0.012 ± 0.0020 and 0.010 ± 0.0012 and 0.0083 ± 0.0005 and 0.015 ± 0.0016 and 0.0087 ± 0.0012"}]}]}
